Experimental data reported in publication PMC10215302 (Antibiotics, 2023).
Converted amounts (≈) assume the structure as drawn. Like-named read-outs stand apart in the source and are kept apart here.

Key:
[1] = test system: S. aureus RN4220; settings: Table S1: RN4220 ∆ (strain with deletion in SACOL1927)
[2] = test system: S. aureus SA0077; assay: microbe, parasite or virus in culture; settings: Staphylococcus aureus
[3] = test system: S. aureus SA0085; assay: microbe, parasite or virus in culture; settings: Staphylococcus aureus
[4] = test system: S. aureus SA0422; assay: microbe, parasite or virus in culture; settings: Staphylococcus aureus
[5] = test system: S. aureus SA0736; assay: microbe, parasite or virus in culture; settings: Staphylococcus aureus
[6] = test system: S. aureus ATCC 29213; assay: microbe, parasite or virus in culture; settings: Staphylococcus aureus
[7] = test system: S. aureus RN4220; assay: microbe, parasite or virus in culture; settings: Staphylococcus aureus, RN4220, read-out: MIC values
[8] = test system: S. aureus SA0085; settings: SA0085, after 40 passages in antibiotic-free media (SCCmec excision)
[9] = SA0077, read-out: MIC values, Table S1: SA0077 Abf (passages on antibiotic-free media)
[10] = SA0077, read-out: MIC values, Table S1: SA0077 DAP (derivative after 40 passages on daptomycin)
[11] = SA0077, read-out: MIC values, Table S1: SA0077 VAN (derivative after 40 passages on vancomycin)
[12] = SA0085, read-out: MIC values, Table S1: SA0085 Abf (passages on antibiotic-free media)
[13] = SA0085, read-out: MIC values, Table S1: SA0085 VAN (derivative after 40 passages on vancomycin)
[14] = SA0422, read-out: MIC values, Table S1: SA0422 DAP (derivative after 40 passages on daptomycin)
[15] = SA0736, read-out: MIC values, Table S1: SA0736 DAP-Y (40 passages on daptomycin, yellow colonies)
[16] = SA0736, read-out: MIC values, Table S1: SA0736 VAN (derivative after 40 passages on vancomycin)
[17] = ATCC29213, read-out: MIC values
[18] = ATCC29213, read-out: MIC values, Table S1: ATCC 29213 DAP (derivative after 40 passages on daptomycin)
[19] = SA0422, read-out: MIC values, Table S1: SA0422 VAN (derivative after 40 passages on vancomycin)

Structure (SMILES) | MIC values [1] | MIC ([2]; SA0077, read-out: MIC values) | MIC [2, 9] | MIC [2, 10] | MIC [2, 11] | MIC ([3]; SA0085, read-out: MIC values) | MIC [3, 12] | MIC [3, 13] | MIC ([4]; SA0422, read-out: MIC values) | MIC [4, 14] | MIC ([5]; SA0736, read-out: MIC values) | MIC [5, 15] | MIC [5, 16] | MIC [6, 17] | MIC [6, 18] | MIC [7] | MIC [4, 19] | MIC ([5]; SA0736, read-out: MIC values, Table S1: SA0736 DAP-W (40 passages on daptomycin, white colonies)) | MIC after 40 passages in antibiotic-free media [8] | MIC ([3]; SA0085, read-out: MIC before passaging, SA0085, before passaging in antibiotic-free media)
CO[C@@]1(NC(=O)Cc2cccs2)C(=O)N2C(C(=O)O)=C(COC(N)=O)CS[C@@H]21 [Cefoxitin] | 4 mg/L (≈ 9.36 µM) | 256 mg/L (≈ 599 µM) | 64 mg/L (≈ 150 µM) | 128 mg/L (≈ 299 µM) | 128 mg/L (≈ 299 µM) | 256 mg/L (≈ 599 µM) | 4 mg/L (≈ 9.36 µM) | 4 mg/L (≈ 9.36 µM) | 256 mg/L (≈ 599 µM) | 64 mg/L (≈ 150 µM) | 64 mg/L (≈ 150 µM) | 8 mg/L (≈ 18.7 µM) | 128 mg/L (≈ 299 µM) | 4 mg/L (≈ 9.36 µM) | 2 mg/L (≈ 4.68 µM) | 4 mg/L (≈ 9.36 µM) |  |  |  | 
CCO/N=C(\C(=O)N[C@@H]1C(=O)N2C(C(=O)[O-])=C(Sc3nc(-c4cc[n+](C)cc4)cs3)CS[C@H]12)c1nsc(N)n1 [Ceftaroline] | 0.5 mg/L (≈ 0.827 µM) | 1 mg/L (≈ 1.65 µM) |  | 0.5 mg/L (≈ 0.827 µM) |  | 1 mg/L (≈ 1.65 µM) | 0.5 mg/L (≈ 0.827 µM) | 0.125 mg/L (≈ 0.207 µM) | 2 mg/L (≈ 3.31 µM) | 0.5 mg/L (≈ 0.827 µM) | 1 mg/L (≈ 1.65 µM) | 0.5 mg/L (≈ 0.827 µM) | 0.5 mg/L (≈ 0.827 µM) | 0.125 mg/L (≈ 0.207 µM) | 0.25 mg/L (≈ 0.413 µM) | 0.5 mg/L (≈ 0.827 µM) | 1 mg/L (≈ 1.65 µM) | 0.5 mg/L (≈ 0.827 µM) |  | 
Cc1onc(-c2ccccc2)c1C(=O)N[C@@H]1C(=O)N2[C@@H]1SC(C)(C)[C@@H]2C(=O)O [Oxacillin] | < 0.5 mg/L | 512 mg/L (≈ 1280 µM) | 128 mg/L (≈ 319 µM) | 256 mg/L (≈ 638 µM) | 32 mg/L (≈ 79.7 µM) | 256 mg/L (≈ 638 µM) | 1 mg/L (≈ 2.49 µM) | 32 mg/L (≈ 79.7 µM) | 512 mg/L (≈ 1280 µM) | 2 mg/L (≈ 4.98 µM) | 64 mg/L (≈ 159 µM) | 16 mg/L (≈ 39.9 µM) |  | < 0.5 mg/L |  | < 0.5 mg/L | 256 mg/L (≈ 638 µM) |  | 1 mg/L (≈ 2.49 µM) | 512 mg/L (≈ 1280 µM)
